Experimental data taken from patent US20250281424A1 (New York Blood Center, Inc, priority 2020, published 2025).
Values after ≈ are worked out from the molar mass of the structure shown. Where two headings read alike, the source gives them in different places.

Experiments:
[1] = target: T1, ultra large complexes (ULC) between PF4 tetramers and heparin (Homo sapiens, UniProt P02776); assay: Inhibition of formation of ultra large complexes (ULC) of PF4 tetramers and heparin; assay type: biochemical; details: for IC50: IC50 values are +/−20%
T1 construct: platelet factor 4 which is a 70 amino acid, lysine-rich, 7.8 kDa platelet-specific protein
T1 sequence (P02776 32-101): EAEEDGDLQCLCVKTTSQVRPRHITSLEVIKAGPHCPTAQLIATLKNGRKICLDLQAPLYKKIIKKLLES
Experimental: Since ULCs are formed as part of a dynamic equilibrium between heparin and PF4, dynamic light scattering (DLS) was performed to measure the ability of the exemplified compounds to disrupt preformed ULCs. Samples were analyzed and included PF4 incubated in the absence or presence of unfractionated heparin (UFH) for 20 min at room temperature at PF4 to heparin ratios (PHR) of 1:0 (no heparin), 2:1, and 0.64:1. The samples were then analyzed using photon correlation spectroscopy on a DynaPro® DLS instrument and Dynamics® software (V6.7.6; […]) to obtain correlation function. The results of the DLS analysis indicate the percentage of ULCs and small PF4 particles. Data for the small particles (a population of particles with a mean hydrodynamic diameter of about 1 nm) and data for the large particles (a population of particles with a mean hydrodynamic diameter of about 300 nm) is assessed. Data are expressed as the percent of total intensity from each measurement, the mean of 10 measurements, and representative of two such experiments.
ELISA measurement and gel filtration measurement of ULC inhibition were performed as described in International Patent Publication No. WO2013/142328, which is incorporated herein by reference. Similarly, assays in which heparin concentrations are varied to determine the effect on ULC inhibition were performed as described in that publication.
Certain compounds were evaluated for their ability to inhibit formation of ultra large complexes (ULC) between PF4 tetramers and heparin.

[2] = target: P450 2D6 (Homo sapiens, UniProt P10635); assay: P450 inhibition 2D6; assay type: in vitro ADME
Experimental: (§1) Certain exemplified compounds were examined for ADMET (absorption, distribution, metabolism, excretion and toxicity) profiling using conventional assays with the results shown in the Tables 3A-3C below.
(§2) Examples 1 and 3 were evaluated as inhibitors of the five P450s that are the source of most DDI issues. […] The tested compounds meet drug property criteria for IV administration.

[3] = target: T2, P450 1A2 (Homo sapiens, UniProt P05177); assay: P450 inhibition 1A2; assay type: in vitro ADME
T2 sequence (P05177 1-516): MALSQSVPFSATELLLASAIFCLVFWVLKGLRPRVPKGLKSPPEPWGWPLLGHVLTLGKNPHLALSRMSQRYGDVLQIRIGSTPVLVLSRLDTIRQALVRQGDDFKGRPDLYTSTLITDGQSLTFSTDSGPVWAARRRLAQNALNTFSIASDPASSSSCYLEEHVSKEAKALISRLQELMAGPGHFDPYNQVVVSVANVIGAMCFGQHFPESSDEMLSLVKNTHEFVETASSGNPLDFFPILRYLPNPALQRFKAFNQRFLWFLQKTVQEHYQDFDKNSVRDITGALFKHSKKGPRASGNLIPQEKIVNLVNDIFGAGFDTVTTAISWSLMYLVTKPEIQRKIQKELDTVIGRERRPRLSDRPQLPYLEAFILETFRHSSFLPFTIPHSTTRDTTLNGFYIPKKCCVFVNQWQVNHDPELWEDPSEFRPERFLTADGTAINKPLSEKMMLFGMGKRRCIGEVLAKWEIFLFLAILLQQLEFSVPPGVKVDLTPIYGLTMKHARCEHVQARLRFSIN
Experimental: as §1, §2

[4] = Human microsome stability; assay type: in vitro ADME; details: for half-life at 0.5 μM / microsomal CLint at 0.5 μM: Human microsomes, compound conc = 0.5 μM, n = 1; for half-life at 0.5 μM: read-out: Human microsome stability Half life t1/2; for microsomal CLint at 0.5 μM: read-out: Human microsome stability Intrinsic Clearance Clint (ml/min/mg protein); for intrinsic clearance in human microsome assay / stability in human microsome assay: human microsomes
Description: as §1

[5] = target: human Ether-à-go-go-Related Gene (hERG) (Homo sapiens, UniProt Q12809); assay: hERG patch clamp assay; assay type: in vitro ADME; details: for hERG inhibition: 30 μM concentration, patch clamp
Experimental: as §1, §2

[6] = Mouse microsome stability; assay type: in vitro ADME; details: for half-life at 0.5 μM: Mouse microsomes, compound conc = 0.5 μM, n = 1, read-out: Mouse microsome stability Half life t1/2; for intrinsic clearance in mouse microsome assay / stability in mouse microsome assay: mouse microsomes
Description: as §1

[7] = Cytotoxicity NIH3T3 (MTS reduction); assay type: cell-based; details: mouse, NIH3T3 cells, 1 hour exposure in the absence of serum, N = 3, read-out: Cytotox NIH3T3 EC50
[8] = Kinetic solubility pH 7.4; assay type: physicochemical
Description: as §1

[9] = pH 7.4, aqueous buffer, kinetic from dmso stock

P450 2D6, sequence (P10635 whole entry): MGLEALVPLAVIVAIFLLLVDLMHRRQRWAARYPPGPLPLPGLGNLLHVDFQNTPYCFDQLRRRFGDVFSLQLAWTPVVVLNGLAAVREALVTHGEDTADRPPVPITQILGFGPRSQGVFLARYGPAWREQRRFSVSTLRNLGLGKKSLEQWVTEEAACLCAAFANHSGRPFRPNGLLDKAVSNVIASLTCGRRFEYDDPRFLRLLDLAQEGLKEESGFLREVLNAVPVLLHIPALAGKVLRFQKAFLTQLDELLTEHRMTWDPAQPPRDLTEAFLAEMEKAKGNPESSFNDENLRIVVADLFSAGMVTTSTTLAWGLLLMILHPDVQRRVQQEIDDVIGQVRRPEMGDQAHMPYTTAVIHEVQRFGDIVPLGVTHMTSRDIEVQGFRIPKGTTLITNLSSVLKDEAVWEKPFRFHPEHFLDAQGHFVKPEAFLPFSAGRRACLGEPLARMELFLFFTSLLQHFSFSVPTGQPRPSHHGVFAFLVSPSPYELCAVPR
human Ether-à-go-go-Related Gene (hERG), sequence (Q12809 whole entry): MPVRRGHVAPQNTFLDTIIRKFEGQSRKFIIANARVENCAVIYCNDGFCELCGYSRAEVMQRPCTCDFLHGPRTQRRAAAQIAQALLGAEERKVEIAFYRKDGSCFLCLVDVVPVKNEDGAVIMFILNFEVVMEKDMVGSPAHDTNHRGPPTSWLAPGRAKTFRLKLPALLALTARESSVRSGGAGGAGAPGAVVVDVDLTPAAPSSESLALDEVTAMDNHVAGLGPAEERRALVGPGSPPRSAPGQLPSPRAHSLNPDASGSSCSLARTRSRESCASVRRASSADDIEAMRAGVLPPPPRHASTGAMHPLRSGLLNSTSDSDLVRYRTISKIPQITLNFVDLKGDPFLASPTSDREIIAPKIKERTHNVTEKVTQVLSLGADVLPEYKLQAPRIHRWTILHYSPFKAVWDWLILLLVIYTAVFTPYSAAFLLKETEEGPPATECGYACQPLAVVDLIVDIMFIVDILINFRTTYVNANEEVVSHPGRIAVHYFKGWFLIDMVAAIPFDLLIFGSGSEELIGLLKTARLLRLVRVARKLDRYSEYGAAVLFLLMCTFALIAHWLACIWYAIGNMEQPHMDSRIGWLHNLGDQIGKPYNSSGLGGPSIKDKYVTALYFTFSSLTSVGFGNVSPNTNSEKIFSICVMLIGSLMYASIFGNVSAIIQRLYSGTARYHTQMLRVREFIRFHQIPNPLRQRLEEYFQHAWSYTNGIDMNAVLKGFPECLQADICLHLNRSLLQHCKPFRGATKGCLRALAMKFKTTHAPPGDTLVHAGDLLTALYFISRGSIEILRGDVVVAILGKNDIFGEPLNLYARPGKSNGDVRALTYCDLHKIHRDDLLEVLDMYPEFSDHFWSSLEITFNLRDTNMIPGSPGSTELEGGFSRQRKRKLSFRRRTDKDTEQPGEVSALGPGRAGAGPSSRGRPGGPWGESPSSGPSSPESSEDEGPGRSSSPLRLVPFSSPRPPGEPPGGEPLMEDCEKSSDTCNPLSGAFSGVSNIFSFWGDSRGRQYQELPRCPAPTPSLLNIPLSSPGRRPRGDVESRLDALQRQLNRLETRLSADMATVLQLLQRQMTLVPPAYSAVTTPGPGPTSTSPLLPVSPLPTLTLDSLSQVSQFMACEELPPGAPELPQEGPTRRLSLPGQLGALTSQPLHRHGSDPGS

Row | Structure (SMILES) | IC50 [1] [µM] | inhibition of P450 2D6 [2] | IC50 [3] [µM] | half-life at 0.5 μM [4] [min] | microsomal CLint at 0.5 μM [4] [mL/min/mg] | intrinsic clearance in human microsome assay [4] | stability in human microsome assay [4] | hERG inhibition [5] | half-life at 0.5 μM [6] [min] | intrinsic clearance in mouse microsome assay [6] | stability in mouse microsome assay [6] | EC50 at 1 h [7] [µg/mL] | solubility kinetic [8, 9] [µM] | other results
1 | CC(=O)C1C(=O)c2ccc(C(=O)c3ccc4c(c3)C(=O)C(C(C)=O)C4=O)cc2C1=O (stereo not shown) [Example 1, 5,5′-carbonylbis(2-acetyl-1h-indene-1,3(2h)-dione)] | 8 | no inhibition | 46.7 | 86.6 | 15.8 | low intrinsic clearance | excellent stability | no significant inhibition | > 145 | low intrinsic clearance | excellent stability | > 1000 | > 200 | IC50 [2]: > 100 µM; inhibition of P450 1A2 [3]: moderate inhibition; IC50 [5]: > 30 µM; solubility kinetic ([8]; pH 7.4): >200 µM
2 | CCOC(=O)C1C(=O)c2ccc(C(=O)c3ccc4c(c3)C(=O)C(C(=O)OCC)C4=O)cc2C1=O (stereo not shown) [Example 3, diethyl 5,5′-carbonylbis(1,3-dioxo-2,3-dihydro-1h-indene-2-carboxylate)] | 2 | no inhibition | > 100 | > 145 | < 9.5 | low intrinsic clearance | excellent stability | no significant inhibition | > 145 | low intrinsic clearance | excellent stability | > 500 | 88.2 (≈ 40.8 µg/mL) | inhibition of ULC formation ([1]; FIG. 6B): dose-dependent inhibition; IC50 ([2]; read-out: P450 Inhibition IC50 2D6): > 100 µM; IC50 ([5]; read-out: hERG IC50): > 30 µM; aqueous solubility [8]: good aqueous solubility
